This is an account of results in ChEMBL document CHEMBL1122399, “Synthesis and antibacterial activities of new (alpha-hydrazinobenzyl)cephalosporins” (1983).

Values after ≈ are worked out from the molar mass of the structure shown.

Holding throughout (type): functional
Assay [1] has as its system Bacteria. In words: In vitro antibacterial activity was determined by 2 fold serial agar dilution method in gram negative resistant bacteria. Background: In agar dilution, organisms are placed on agar that contains the substance at set levels.
Assay [2] in a line: In vitro antibacterial activity was determined by 2 fold serial agar dilution method in gram positive resistant bacteria.
Assay [3] relates to Bacteria. Nature of the assay: In vitro antibacterial activity was determined by 2 fold serial agar dilution method with multilocular device in gram negative bacteria.
Assay [4] in a line: In vitro antibacterial activity was determined by 2 fold serial agar dilution method with multilocular device in gram positive bacteria.

What is called MIC is the lowest concentration that inhibits growth of the organism. The low end stands for greater potency, the high end for weaker potency. For `CC1=C(C(=O)O)N2C(=O)[C@@H](NC(=O)C(c3ccccc3)N(C)N)C2SC1` (stereo partly specified), the MIC with Bacteria [1] is above 100 µg/mL; in assay [2], 50 µg/mL (≈ 133 µM); against Bacteria [3], 100 µg/mL (≈ 266 µM); in assay [4] it was 6.74 µg/mL (≈ 17.9 µM).
The corresponding values for `NNC(C(=O)N[C@@H]1C(=O)N2C(C(=O)O)=C(Cl)CSC12)c1ccccc1` (stereo partly specified) are 50 µg/mL (≈ 131 µM), 31.4 µg/mL (≈ 82 µM), 21.4 µg/mL (≈ 55.9 µM) and 1.33 µg/mL (≈ 3.47 µM).
On the same counts, the results for `CC(=O)OCC1=C(C(=O)O)N2C(=O)[C@@H](NC(=O)C(c3ccccc3)N(C)N)C2SC1` (stereo partly specified) are above 100 µg/mL, 24.9 µg/mL (≈ 57.3 µM), 54.5 µg/mL (≈ 125 µM) and 1.33 µg/mL (≈ 3.06 µM).
Take `CC1=C(C(=O)O)N2C(=O)[C@@H](NC(=O)C(NN)c3ccccc3)C2SC1` (stereo partly specified): the MIC in assay [2] is 62.9 µg/mL (≈ 174 µM); in the assay on Bacteria [3], above 100 µg/mL; in assay [4], 12.5 µg/mL (≈ 34.5 µM).
With `CC(=O)OCC1=C(C(=O)O)N2C(=O)[C@@H](NC(=O)C(NN)c3ccccc3)C2SC1` (stereo partly specified), the MIC against Bacteria [1] was above 100 µg/mL; in assay [2], 31.5 µg/mL (≈ 74.9 µM); in the assay with Bacteria [3] it was 73.4 µg/mL (≈ 175 µM); in assay [4], 1.68 µg/mL (≈ 4 µM).
With `N[C@@H](C(=O)N[C@@H]1C(=O)N2C(C(=O)O)=C(Cl)CS[C@H]12)c1ccccc1` [CEFACLOR ANHYDROUS], the MIC against Bacteria [1] stood at 7.8 µg/mL (≈ 21.2 µM); in assay [2], 15.7 µg/mL (≈ 42.7 µM); against Bacteria [3], 1 µg/mL (≈ 2.72 µM); in assay [4], 0.16 µg/mL (≈ 0.435 µM).
On the same counts, the results for `CC1=C(C(=O)O)N2C(=O)[C@@H](NC(=O)[C@H](N)c3ccccc3)[C@H]2SC1` [CEPHALEXIN ANHYDROUS] are 7.8 µg/mL (≈ 22.5 µM), 24.9 µg/mL (≈ 71.7 µM), 5.7 µg/mL (≈ 16.4 µM) and 0.58 µg/mL (≈ 1.67 µM).
The corresponding values for `CC(=O)OCC1=C(C(=O)O)N2C(=O)[C@@H](NC(=O)[C@H](N)c3ccccc3)[C@H]2SC1` [CEPHALOGLYCIN] are 79.3 µg/mL (≈ 196 µM), 19.8 µg/mL (≈ 48.8 µM), 8.5 µg/mL (≈ 21 µM) and 1.33 µg/mL (≈ 3.28 µM).
